# Assay results as given in patent US10744152B2, “Application of Asarum total polysaccharides in preparation of medicine for treating cough” (THE FIRST AFFILIATED HOSPITAL OF GUANGZHOU MEDICAL …, priority 2014, dated 2020).
# Marks after values point to notes of the source that are not given here.
# Legend:
# [1] = tested on: guinea pig models with cough hypersensitivity; experiment: Antitussive effect on guinea pig models with cough hypersensitivity (CS-exposure 14 days, citric acid excitation); format: in vivo; conditions: for Antitussive rate: vs model group
# Experimental: (1) Calculating the cough frequency within 6 min after citric acid excitation, and calculating the antitussive rate of each administration group by using the formula “the antitussive rate=(Nmodel group−Nadministration group)/Nmodel group×100%”.
# (2) Calculating the cough latent period of each administration group within 6 min after citric acid excitation;
# Experimental materials are same as those of the Embodiment 5. […] Schmidt var. Mandshuricum (Maxim.) Kitag. into pieces, adding 20 times amount of distilled water to soak the cut roots overnight, extracting decoction from boiling water for 6 hours, filtering the decoction with four layers of gauze, repeatedly decocting filter residues twice, 6 hours each time, combining the filtrates, concentrating the filtrate to 1000 ml, precipitating with 80% of ethanol, centrifuging (4500 r/m, 10 min), and conventionally drying the precipitates (washing the precipitates three times with each of ethanol and ether) to obtain coarse Asarum polysaccharides (Li Jingjing, Study on the Separation, Purification and Immunological Activity of Polysaccharide from Asarum heterotropoides, Journal of Changchun Normal University (Natural Science), 2008, 27(1): 54-58)), a group of the Asarum total polysaccharides extract in the Embodiment 1 (800 mg/kg), and a group of the Asarum total polysaccharide extract in the Embodiment 2 (800 mg/kg). The rest of experimental methods are same as the Embodiment 5.
# [2] = tested on: guinea pig models with cough hypersensitivity; experiment: Airway inflammation indicators in BALF (TCC, classification of cells) of guinea pig models with cough hypersensitivity; format: in vivo; conditions: 30 mg/kg, 14 days
# From the text: Experimental materials are same as those of the Embodiment 5. […] Schmidt var.
# [3] = tested on: guinea pig models with acute cough; experiment: Acute antitussive effect on cough of guinea pigs induced by citric acid
compound,measurement,setting,value
"COc1ccc2c3c1O[C@H]1[C@@H](O)C=C[C@H]4[C@@H](C2)N(C)CC[C@@]341 [Codeine phosphate, codeine phosphate]",Cough frequency,"[1]; 30 mg/kg intragastric once a day 14 days, CS-exposure 14 days, within 6 min after citric acid",5.7 +/− 1.9*** times
same,Cough latent period,"[1]; 30 mg/kg, 14 days, CS-exposure, after citric acid",199.7 +/− 37.7*** seconds
same,Antitussive rate,"[1]; 30 mg/kg, 14 days",81.1%
same,Cough frequency,"[1]; Embodiment 8 comparison of different extracts, 30 mg/kg, 14 days",5.7 +/− 1.9*** times
same,Antitussive rate,"[1]; Embodiment 8 comparison, 30 mg/kg, 14 days",81.1%
same,Eos %,[2]; BALF,3.6 +/− 3.1%
same,Lym %,[2]; BALF,5.3 +/− 1.1%
same,Mac %,[2]; macrophages in BALF,39.4 +/− 7.1%
same,Neu %,[2]; neutrophils in BALF,51.8 +/− 8.4%
same,Cough frequency,"[3]; 30 mg/kg once a day for 3 days, within 6 min after citric acid nebulization",8.5 +/− 2.6*** times
same,Cough latent period,"[3]; 30 mg/kg, 3 days, after citric acid nebulization",95.3 ± 18.3 s
same,Antitussive rate,"[3]; 30 mg/kg, 3 days, vs blank control group",70.5%
